Data: patent US20040258633A1, “Composition containing monoterpenes for topical oral administration” (Gisol Ltd., priority 2000, published 2004)

Assay: Example 5 salt solution mouth wash, periodontal index (PI)
Format: in vivo
Conditions: 10% salt solution mouth wash, 30 seconds, twice a day, for a week; point of origin = 1
Protocol: Using solutions having a concentration of 10% the salts presented in table 3 below were applied after tooth brushing, in the form of a mouth wash. The mouth wash was applied for 30 seconds, twice a day, for a week. The following results were measured according to the periodontal index (PI): […]

Structure (SMILES)	PI (periodontal index)
[Br-].[Br-].[Mg+2] [MgBr2]	1.58
[Cl-].[K+] [Kcl]	1.47
[Cl-].[Na+] [NaCl]	1.32
